Paper PMC5917001, “Counter-ion effect on antistaphylococcal activity and cytotoxicity of selected antimicrobial peptides” (Amino Acids, 2018)
Where no end group is shown, it is not given here.

How the values were obtained:
[1] = system: S. aureus (29): reference (5) and clinical (24) strains; conditions: for Mean value of MIC: mean over 29 S. aureus strains (Table 5); for Mean MIC values: mean over 29 S. aureus strains, as repeated in Table 6; for MIC range among strains: range over all S. aureus strains and the salts of the peptide
Protocol: Microbiological assays were performed using reference and clinical strains of Staphylococcus aureus. Minimal inhibitory concentrations (MIC) were determined by broth microdilution method on 96-well polystyrene plates according to Clinical and Laboratory Standards Institute (CLSI) recommendations [Clinical and Laboratory Standards Institute (CLSI) [2012]]. […] All plates were incubated for 18 h at 37 °C. […] Reference strains of S. aureus: ATCC 6538, ATCC 6538/P, ATCC 9144, ATCC 12598, and ATCC 25923 were obtained from the Polish Collection of Microorganisms (PCM, Polish Academy of Sciences, Wrocław), whereas 24 clinical strains were isolated from the patients of the Clinic of Dermatology, Venereology and Allergology (Medical University of Gdańsk). Nine strains were characterized as methicillin-resistant (MRSA). Preliminary identification and detection was conducted on the ChromID MRSA/ChromID S. aureus biplate (bioMérieux) for the simultaneous detection of S. aureus and methicillin-resistant S. aureus (MRSA). All experiments were conducted at least in triplicate.
To asses an overall activity of peptides, the mean MIC values were calculated.

[2] = system: S. aureus 017N (MRSA); assay type: cell-based, Staphylococcus aureus; conditions: clinical strain, broth microdilution, 0.5 × 10^5 CFU/mL, 18 h, 37 °C, at least triplicate
Protocol: (§1) Microbiological assays were performed using reference and clinical strains of Staphylococcus aureus. Minimal inhibitory concentrations (MIC) were determined by broth microdilution method on 96-well polystyrene plates according to Clinical and Laboratory Standards Institute (CLSI) recommendations [Clinical and Laboratory Standards Institute (CLSI) [2012]]. For this purpose, the initial inoculums of 0.5 × 10^5 CFU/mL of bacteria were exposed to a range of concentrations of the peptides (0.5–256 µg/mL). All plates were incubated for 18 h at 37 °C. MIC was taken as the lowest concentration of the compound at which the growth of bacteria was not observed. Reference strains of S. aureus: ATCC 6538, ATCC 6538/P, ATCC 9144, ATCC 12598, and ATCC 25923 were obtained from the Polish Collection of Microorganisms (PCM, Polish Academy of Sciences, Wrocław), whereas 24 clinical strains were isolated from the patients of the Clinic of Dermatology, Venereology and Allergology (Medical University of Gdańsk). Nine strains were characterized as methicillin-resistant (MRSA). Preliminary identification and detection was conducted on the ChromID MRSA/ChromID S. aureus biplate (bioMérieux) for the simultaneous detection of S. aureus and methicillin-resistant S. aureus (MRSA). All experiments were conducted at least in triplicate.

[3] = system: S. aureus 030N; assay type: cell-based, Staphylococcus aureus; conditions: clinical strain, broth microdilution, 0.5 × 10^5 CFU/mL, 18 h, 37 °C, at least triplicate
Protocol: as §1

[4] = system: S. aureus 002N; assay type: cell-based, Staphylococcus aureus; conditions: clinical strain, broth microdilution, 0.5 × 10^5 CFU/mL, 18 h, 37 °C, at least triplicate
Protocol: as §1

[5] = system: S. aureus 045N; assay type: cell-based, Staphylococcus aureus; conditions: clinical strain, broth microdilution, 0.5 × 10^5 CFU/mL, 18 h, 37 °C, at least triplicate
Protocol: as §1

[6] = system: S. aureus 051S; assay type: cell-based, Staphylococcus aureus; conditions: clinical strain, broth microdilution, 0.5 × 10^5 CFU/mL, 18 h, 37 °C, at least triplicate
Protocol: as §1

[7] = system: S. aureus 015N (MRSA); assay type: cell-based, Staphylococcus aureus; conditions: clinical strain, broth microdilution, 0.5 × 10^5 CFU/mL, 18 h, 37 °C, at least triplicate
Protocol: as §1

[8] = system: S. aureus K50S; assay type: cell-based, Staphylococcus aureus; conditions: clinical strain, broth microdilution, 0.5 × 10^5 CFU/mL, 18 h, 37 °C, at least triplicate
Protocol: as §1

[9] = system: S. aureus K46N; assay type: cell-based, Staphylococcus aureus; conditions: clinical strain, broth microdilution, 0.5 × 10^5 CFU/mL, 18 h, 37 °C, at least triplicate
Protocol: as §1

[10] = system: S. aureus 024N (MRSA); assay type: cell-based, Staphylococcus aureus; conditions: clinical strain, broth microdilution, 0.5 × 10^5 CFU/mL, 18 h, 37 °C, at least triplicate
Protocol: as §1

[11] = system: S. aureus 001N (MRSA); assay type: cell-based, Staphylococcus aureus; conditions: clinical strain, broth microdilution, 0.5 × 10^5 CFU/mL, 18 h, 37 °C, at least triplicate
Protocol: as §1

[12] = system: S. aureus K19N; assay type: cell-based, Staphylococcus aureus; conditions: clinical strain, broth microdilution, 0.5 × 10^5 CFU/mL, 18 h, 37 °C, at least triplicate
Protocol: as §1

[13] = system: S. aureus 013S; assay type: cell-based, Staphylococcus aureus; conditions: clinical strain, broth microdilution, 0.5 × 10^5 CFU/mL, 18 h, 37 °C, at least triplicate
Protocol: as §1

[14] = system: S. aureus 053N; assay type: cell-based, Staphylococcus aureus; conditions: clinical strain, broth microdilution, 0.5 × 10^5 CFU/mL, 18 h, 37 °C, at least triplicate
Protocol: as §1

[15] = system: S. aureus 039N; assay type: cell-based, Staphylococcus aureus; conditions: clinical strain, broth microdilution, 0.5 × 10^5 CFU/mL, 18 h, 37 °C, at least triplicate
Protocol: as §1

[16] = system: S. aureus ATCC 6538/P; assay type: cell-based, Staphylococcus aureus; conditions: reference strain, broth microdilution, 0.5 × 10^5 CFU/mL, 18 h, 37 °C, at least triplicate
Protocol: as §1

[17] = system: S. aureus 004N (MRSA); assay type: cell-based, Staphylococcus aureus; conditions: clinical strain, broth microdilution, 0.5 × 10^5 CFU/mL, 18 h, 37 °C, at least triplicate
Protocol: as §1

[18] = system: S. aureus 017S (MRSA); assay type: cell-based, Staphylococcus aureus; conditions: clinical strain, broth microdilution, 0.5 × 10^5 CFU/mL, 18 h, 37 °C, at least triplicate
Protocol: as §1

[19] = system: S. aureus ATCC 9144; assay type: cell-based, Staphylococcus aureus; conditions: ATCC 9144, reference strain; broth microdilution, 0.5 × 10^5 CFU/mL, 18 h, 37 °C, at least triplicate
Protocol: as §1

[20] = system: S. aureus 001S (MRSA); assay type: cell-based, Staphylococcus aureus; conditions: clinical strain, broth microdilution, 0.5 × 10^5 CFU/mL, 18 h, 37 °C, at least triplicate
Protocol: as §1

[21] = system: S. aureus 005S; assay type: cell-based, Staphylococcus aureus; conditions: clinical strain, broth microdilution, 0.5 × 10^5 CFU/mL, 18 h, 37 °C, at least triplicate
Protocol: as §1

[22] = system: S. aureus 048S; assay type: cell-based, Staphylococcus aureus; conditions: clinical strain, broth microdilution, 0.5 × 10^5 CFU/mL, 18 h, 37 °C, at least triplicate
Protocol: as §1

[23] = system: S. aureus ATCC 25923; assay type: cell-based, Staphylococcus aureus; conditions: ATCC 25923, reference strain; broth microdilution, 0.5 × 10^5 CFU/mL, 18 h, 37 °C, at least triplicate
Protocol: as §1

[24] = system: S. aureus ATCC 12598; assay type: cell-based, Staphylococcus aureus; conditions: ATCC 12598, reference strain; broth microdilution, 0.5 × 10^5 CFU/mL, 18 h, 37 °C, at least triplicate
Protocol: as §1

[25] = system: S. aureus 043SC (MRSA); assay type: cell-based, Staphylococcus aureus; conditions: clinical strain, broth microdilution, 0.5 × 10^5 CFU/mL, 18 h, 37 °C, at least triplicate
Protocol: as §1

[26] = system: S. aureus 002S; assay type: cell-based, Staphylococcus aureus; conditions: clinical strain, broth microdilution, 0.5 × 10^5 CFU/mL, 18 h, 37 °C, at least triplicate
Protocol: as §1

[27] = system: S. aureus 060S; assay type: cell-based, Staphylococcus aureus; conditions: clinical strain, broth microdilution, 0.5 × 10^5 CFU/mL, 18 h, 37 °C, at least triplicate
Protocol: as §1

[28] = system: S. aureus 033N; assay type: cell-based, Staphylococcus aureus; conditions: clinical strain, broth microdilution, 0.5 × 10^5 CFU/mL, 18 h, 37 °C, at least triplicate
Protocol: as §1

[29] = system: S. aureus 051N (MRSA); assay type: cell-based, Staphylococcus aureus; conditions: clinical strain, broth microdilution, 0.5 × 10^5 CFU/mL, 18 h, 37 °C, at least triplicate
Protocol: as §1

[30] = system: S. aureus ATCC 6538; assay type: cell-based, Staphylococcus aureus; conditions: ATCC 6538, reference strain; broth microdilution, 0.5 × 10^5 CFU/mL, 18 h, 37 °C, at least triplicate
Protocol: as §1

Row | Substance | Mean value of MIC [1] | MIC [2] | MIC [3] | MIC [4] | MIC [5] | MIC [6] | MIC [7] | MIC [8] | MIC [9] | MIC [10] | MIC [11] | MIC [12] | MIC [13] | MIC [14] | MIC [15] | MIC [16] | MIC [17] | MIC [18] | MIC [19] | MIC [20] | also measured
1 | FLPLIGRVLSGIL-NH2 [Temporin A AcO^−] | 4.2 µg/mL |  |  |  |  |  |  |  |  |  |  |  |  |  |  |  |  |  |  |  | 
2 | FLPLIGRVLSGIL-NH2 [Temporin A Cl^−] | 5.7 µg/mL | 8 µg/mL | 4 µg/mL | 4 µg/mL | 8 µg/mL | 8 µg/mL | 8 µg/mL | 4 µg/mL | 8 µg/mL | 4 µg/mL | 8 µg/mL | 8 µg/mL | 4 µg/mL | 4 µg/mL | 4 µg/mL | 8 µg/mL | 4 µg/mL | 8 µg/mL | 8 µg/mL | 4 µg/mL | MIC [21]: 4 µg/mL; MIC [22]: 4 µg/mL; MIC [23]: 4 µg/mL; MIC [24]: 4 µg/mL; MIC [25]: 8 µg/mL; MIC [26]: 4 µg/mL; MIC [27]: 4 µg/mL; MIC [28]: 4 µg/mL; MIC [29]: 8 µg/mL; MIC [30]: 4 µg/mL; Mean MIC values [1]: 5.7 µg/mL
3 | FLPLIGRVLSGIL-NH2 [Temporin A TFA^−] | 5.9 µg/mL |  |  |  |  |  |  |  |  |  |  |  |  |  |  |  |  |  |  |  | 
4 | GIGKFLKKAKKFGKAFVKILKK-NH2 [Pexiganan Cl^−] | 7.4 µg/mL |  |  |  |  |  |  |  |  |  |  |  |  |  |  |  |  |  |  |  | 
5 | GIGKFLKKAKKFGKAFVKILKK-NH2 [Pexiganan TFA^−] | 8.4 µg/mL |  |  |  |  |  |  |  |  |  |  |  |  |  |  |  |  |  |  |  | 
6 | GIGKFLKKAKKFGKAFVKILKK-NH2 [Pexiganan] |  |  |  |  |  |  |  |  |  |  |  |  |  |  |  |  |  |  |  |  | MIC range among strains [1]: 1 to 16 µg/mL
7 | GLFDVIKKVASVIGGL-NH2 [Citropin 1.1 AcO^−] | 10.0 µg/mL | 4 µg/mL | 16 µg/mL | 16 µg/mL | 16 µg/mL | 4 µg/mL | 8 µg/mL | 1 µg/mL | 16 µg/mL | 2 µg/mL | 16 µg/mL | 16 µg/mL | 2 µg/mL | 16 µg/mL | 8 µg/mL | 8 µg/mL | 8 µg/mL | 8 µg/mL | 16 µg/mL | 16 µg/mL | MIC [21]: 2 µg/mL; MIC [22]: 16 µg/mL; MIC [23]: 16 µg/mL; MIC [24]: 8 µg/mL; MIC [25]: 8 µg/mL; MIC [26]: 16 µg/mL; MIC [27]: 1 µg/mL; MIC [28]: 8 µg/mL; MIC [29]: 8 µg/mL; MIC [30]: 4 µg/mL; Mean MIC values [1]: 10.0 µg/mL
8 | GLFDVIKKVASVIGGL-NH2 [Citropin 1.1 Cl^−] | 10.0 µg/mL | 4 µg/mL | 16 µg/mL | 16 µg/mL | 16 µg/mL | 4 µg/mL | 8 µg/mL | 1 µg/mL | 16 µg/mL | 2 µg/mL | 16 µg/mL | 16 µg/mL | 2 µg/mL | 16 µg/mL | 16 µg/mL | 8 µg/mL | 8 µg/mL | 4 µg/mL | 16 µg/mL | 16 µg/mL | MIC [21]: 2 µg/mL; MIC [22]: 16 µg/mL; MIC [23]: 16 µg/mL; MIC [24]: 8 µg/mL; MIC [25]: 8 µg/mL; MIC [26]: 8 µg/mL; MIC [27]: 2 µg/mL; MIC [28]: 16 µg/mL; MIC [29]: 8 µg/mL; MIC [30]: 4 µg/mL; Mean MIC values [1]: 10.0 µg/mL
9 | GLFDVIKKVASVIGGL-NH2 [Citropin 1.1] |  |  |  |  |  |  |  |  |  |  |  |  |  |  |  |  |  |  |  |  | MIC range among strains [1]: 1 to 32 µg/mL
10 | KWKLFKKIGAVLKVL-NH2 [CAMEL] | below 3.5 µg/mL |  |  |  |  |  |  |  |  |  |  |  |  |  |  |  |  |  |  |  | MIC range among strains [1]: ≤ 0.25 to 8 µg/mL
